The values below come from patent US9790228B2, “Heterocyclic kinase inhibitors” (Intellikine LLC, priority 2008, dated 2017).

Format in all cases: biochemical
The target in one test is p110δ/p85α (Homo sapiens (Human), UniProt O00329). Put plainly: PI3K δ inhibition assay (TLC lipid kinase or HTRF). The procedure: (§1) Class I PI3-Ks can be either purchased (p110α/p85α, p110β/p85α, p110δ/p85α from Upstate, and p110γ from Sigma) or expressed as previously described (Knight et al., 2004). IC50 values are measured using either a standard TLC assay for lipid kinase activity (described below) or a high-throughput membrane capture assay. Kinase reactions are performed by preparing a reaction mixture containing kinase, inhibitor (2% DMSO final concentration), buffer (25 mM HEPES, pH 7.4, 10 mM MgCl2), and freshly sonicated phosphatidylinositol (100 μg/ml). Reactions are initiated by the addition of ATP containing 10 μCi of γ-32P-ATP to a final concentration 10 or 100 μM and allowed to proceed for 5 minutes at room temperature. For TLC analysis, reactions are then terminated by the addition of […] 1N HCl followed by 160 μl CHCl3:MeOH (1:1). The biphasic mixture is vortexed, briefly centrifuged, and the organic phase is transferred to a new tube using a gel loading pipette tip precoated with CHCl3. This extract is spotted on TLC plates and developed for 3-4 hours in a 65:35 solution of n-propanol:1M acetic acid. The TLC plates are then dried, exposed to a phosphorimager screen (Storm, Amersham), and quantitated. For each compound, kinase activity is measured at 10-12 inhibitor concentrations representing two-fold dilutions from the highest concentration tested (typically, 200 μM).
Chain of p110δ/p85α (O00329 whole entry): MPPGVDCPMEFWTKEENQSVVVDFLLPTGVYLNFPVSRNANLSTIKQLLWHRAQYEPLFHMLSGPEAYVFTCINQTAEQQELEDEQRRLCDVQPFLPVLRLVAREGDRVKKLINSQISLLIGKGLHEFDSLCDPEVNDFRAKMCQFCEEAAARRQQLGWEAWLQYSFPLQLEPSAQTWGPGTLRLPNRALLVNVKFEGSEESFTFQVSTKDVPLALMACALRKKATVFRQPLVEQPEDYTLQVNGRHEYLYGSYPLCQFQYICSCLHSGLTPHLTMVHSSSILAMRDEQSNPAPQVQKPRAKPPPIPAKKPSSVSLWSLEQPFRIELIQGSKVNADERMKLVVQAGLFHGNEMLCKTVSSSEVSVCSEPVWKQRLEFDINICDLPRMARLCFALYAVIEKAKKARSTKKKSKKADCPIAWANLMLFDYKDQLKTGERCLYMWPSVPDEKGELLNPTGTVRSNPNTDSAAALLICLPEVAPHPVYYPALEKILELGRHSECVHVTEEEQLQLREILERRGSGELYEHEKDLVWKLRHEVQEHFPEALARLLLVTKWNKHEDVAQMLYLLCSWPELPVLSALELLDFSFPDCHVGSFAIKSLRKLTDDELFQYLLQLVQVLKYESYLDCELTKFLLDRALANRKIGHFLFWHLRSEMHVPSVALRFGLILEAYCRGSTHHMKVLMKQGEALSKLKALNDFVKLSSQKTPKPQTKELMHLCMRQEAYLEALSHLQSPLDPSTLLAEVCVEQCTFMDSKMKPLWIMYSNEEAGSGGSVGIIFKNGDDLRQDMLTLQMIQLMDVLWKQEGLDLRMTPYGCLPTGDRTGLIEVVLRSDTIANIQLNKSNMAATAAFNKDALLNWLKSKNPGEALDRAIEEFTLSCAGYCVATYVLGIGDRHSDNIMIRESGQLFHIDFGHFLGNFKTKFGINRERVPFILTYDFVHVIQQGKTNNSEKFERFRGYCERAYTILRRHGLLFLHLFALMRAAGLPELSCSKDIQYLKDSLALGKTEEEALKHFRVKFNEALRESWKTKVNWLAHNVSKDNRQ
Chain of p110δ/p85α (P27986 whole entry partner): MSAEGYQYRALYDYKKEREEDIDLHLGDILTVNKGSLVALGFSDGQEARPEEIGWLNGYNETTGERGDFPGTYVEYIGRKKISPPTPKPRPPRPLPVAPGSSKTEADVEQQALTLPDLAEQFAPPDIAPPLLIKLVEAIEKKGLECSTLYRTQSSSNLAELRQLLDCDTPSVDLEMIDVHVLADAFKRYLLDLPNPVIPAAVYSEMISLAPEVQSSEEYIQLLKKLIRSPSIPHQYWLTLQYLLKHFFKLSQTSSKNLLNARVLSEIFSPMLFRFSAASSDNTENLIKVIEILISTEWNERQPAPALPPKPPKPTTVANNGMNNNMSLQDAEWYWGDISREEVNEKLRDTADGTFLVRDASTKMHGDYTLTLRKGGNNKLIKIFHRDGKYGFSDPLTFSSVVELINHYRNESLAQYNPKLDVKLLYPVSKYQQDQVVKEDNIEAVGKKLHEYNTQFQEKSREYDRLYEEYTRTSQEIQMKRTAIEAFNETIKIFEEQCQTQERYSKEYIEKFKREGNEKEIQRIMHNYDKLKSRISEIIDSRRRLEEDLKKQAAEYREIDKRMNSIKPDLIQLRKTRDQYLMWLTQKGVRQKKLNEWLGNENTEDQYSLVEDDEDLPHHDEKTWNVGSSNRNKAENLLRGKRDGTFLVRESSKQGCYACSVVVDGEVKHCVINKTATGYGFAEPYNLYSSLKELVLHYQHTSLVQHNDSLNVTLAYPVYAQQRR
(§2) Other commercial kits or systems for assaying PI3-K activities are available. The commercially available kits or systems can be used to screen for inhibitors and/or agonists of PI3-Ks including but not limited to PI 3-Kinase α, β, δ, and γ. Anr exemplary system is PI3-Kinase (human) HTRF™ Assay from Upstate. […] Briefly, the assay is a time resolved FRET assay that indirectly measures PIP3 product formed by the activity of a PI3-K. The kinase reaction is performed in a microtitre plate (e.g., a 384 well microtitre plate). The total reaction volume is approximately 20 ul per well. In the first step, each well receives 2 ul of test compound in 20% dimethylsulphoxide resulting in a 2% DMSO final concentration. Next, approximately 14.5 ul of a kinase/PIP2 mixture (diluted in 1× reaction buffer) is added per well for a final concentration of 0.25-0.3 ug/ml kinase and 10 uM PIP2. The plate is sealed and incubated for 15 minutes at room temperature. To start the reaction, 3.5 ul of ATP (diluted in 1× reaction buffer) is added per well for a final concentration of 10 uM ATP. The plate is sealed and incubated for 1 hour at room temperature. The reaction is stopped by adding 5 ul of Stop Solution per well and then 5 ul of Detection Mix is added per well. The plate is sealed, incubated for 1 hour at room temperature, and then read on an appropriate plate reader. Data is analyzed and IC50s are generated using GraphPad Prism 5.

In a further test the target is p110γ (Homo sapiens (Human), UniProt P48736). Put plainly: PI3K γ inhibition assay (TLC lipid kinase or HTRF). The protocol: as §1, §2
Chain of p110γ (P48736 whole entry): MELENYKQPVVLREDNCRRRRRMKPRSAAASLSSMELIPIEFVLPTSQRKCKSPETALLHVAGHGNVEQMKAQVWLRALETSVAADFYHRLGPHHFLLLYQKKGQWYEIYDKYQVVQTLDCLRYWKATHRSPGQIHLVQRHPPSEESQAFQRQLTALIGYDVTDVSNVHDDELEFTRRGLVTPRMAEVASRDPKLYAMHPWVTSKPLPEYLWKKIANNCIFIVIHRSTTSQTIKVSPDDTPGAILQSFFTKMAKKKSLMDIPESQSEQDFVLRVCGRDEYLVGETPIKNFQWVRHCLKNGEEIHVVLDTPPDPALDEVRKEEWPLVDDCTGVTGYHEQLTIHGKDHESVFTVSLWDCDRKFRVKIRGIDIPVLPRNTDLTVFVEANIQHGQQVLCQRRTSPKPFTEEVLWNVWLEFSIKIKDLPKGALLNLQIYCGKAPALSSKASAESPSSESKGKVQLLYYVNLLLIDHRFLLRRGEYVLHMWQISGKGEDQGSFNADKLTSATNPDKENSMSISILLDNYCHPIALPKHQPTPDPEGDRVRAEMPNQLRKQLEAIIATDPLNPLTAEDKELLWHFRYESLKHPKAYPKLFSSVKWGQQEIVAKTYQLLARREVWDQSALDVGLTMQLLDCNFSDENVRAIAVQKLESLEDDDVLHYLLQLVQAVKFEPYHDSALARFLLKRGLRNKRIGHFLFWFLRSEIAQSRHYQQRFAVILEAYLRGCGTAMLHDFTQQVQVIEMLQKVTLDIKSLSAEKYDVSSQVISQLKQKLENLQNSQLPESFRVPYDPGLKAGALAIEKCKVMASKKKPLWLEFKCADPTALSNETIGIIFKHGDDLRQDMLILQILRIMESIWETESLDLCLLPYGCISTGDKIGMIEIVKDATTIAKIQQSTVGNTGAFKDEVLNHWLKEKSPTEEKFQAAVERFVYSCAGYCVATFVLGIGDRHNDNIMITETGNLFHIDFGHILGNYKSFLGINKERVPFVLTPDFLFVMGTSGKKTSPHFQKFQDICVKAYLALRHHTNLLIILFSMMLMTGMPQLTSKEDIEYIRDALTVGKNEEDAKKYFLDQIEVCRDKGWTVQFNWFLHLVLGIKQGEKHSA
The next test concerns the target p110α/p85α (Homo sapiens (Human), UniProt P42336). Nature of the test: PI3K α inhibition assay (TLC lipid kinase or HTRF). The protocol:
as §1, §2

In another test the target is p110β/p85α (Homo sapiens, UniProt P42338). Put plainly: PI3K β inhibition assay (TLC lipid kinase or HTRF). The note with it: read-out: PI3K β IC50. The procedure:
as §1, §2

The structures appear in SMILES notation.

Chain of p110α/p85α (P42336 whole entry): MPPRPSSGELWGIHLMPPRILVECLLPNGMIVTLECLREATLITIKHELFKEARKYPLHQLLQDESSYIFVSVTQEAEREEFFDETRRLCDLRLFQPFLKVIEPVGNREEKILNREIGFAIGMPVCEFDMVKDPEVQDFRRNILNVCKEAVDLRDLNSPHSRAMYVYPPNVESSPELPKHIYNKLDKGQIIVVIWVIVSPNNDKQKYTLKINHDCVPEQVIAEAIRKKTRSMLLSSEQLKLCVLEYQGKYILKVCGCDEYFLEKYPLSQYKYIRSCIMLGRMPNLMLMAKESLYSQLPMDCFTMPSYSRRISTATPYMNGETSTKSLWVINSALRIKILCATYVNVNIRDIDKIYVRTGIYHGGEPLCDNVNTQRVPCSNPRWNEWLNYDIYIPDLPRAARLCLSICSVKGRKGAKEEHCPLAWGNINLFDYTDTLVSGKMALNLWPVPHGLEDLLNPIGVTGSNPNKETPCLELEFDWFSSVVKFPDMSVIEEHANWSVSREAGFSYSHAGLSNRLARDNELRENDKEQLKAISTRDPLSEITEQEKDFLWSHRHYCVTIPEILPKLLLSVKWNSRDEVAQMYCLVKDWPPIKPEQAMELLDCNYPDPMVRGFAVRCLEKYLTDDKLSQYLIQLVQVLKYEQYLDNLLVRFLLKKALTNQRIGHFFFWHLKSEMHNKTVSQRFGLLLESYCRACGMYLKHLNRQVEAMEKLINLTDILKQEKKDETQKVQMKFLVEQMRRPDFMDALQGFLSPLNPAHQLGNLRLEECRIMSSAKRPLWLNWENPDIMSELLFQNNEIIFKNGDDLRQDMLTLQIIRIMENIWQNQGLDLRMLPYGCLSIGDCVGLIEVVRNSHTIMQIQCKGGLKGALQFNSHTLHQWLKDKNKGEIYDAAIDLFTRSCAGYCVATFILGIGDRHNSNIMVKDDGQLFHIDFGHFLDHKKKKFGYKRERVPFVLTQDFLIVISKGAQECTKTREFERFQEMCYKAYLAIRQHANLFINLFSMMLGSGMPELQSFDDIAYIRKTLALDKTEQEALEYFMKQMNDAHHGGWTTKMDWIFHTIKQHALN
Chain of p110α/p85α (P27986 whole entry partner): as the sequence (P27986 whole entry partner) above
Chain of p110β/p85α (P42338 whole entry, looked up): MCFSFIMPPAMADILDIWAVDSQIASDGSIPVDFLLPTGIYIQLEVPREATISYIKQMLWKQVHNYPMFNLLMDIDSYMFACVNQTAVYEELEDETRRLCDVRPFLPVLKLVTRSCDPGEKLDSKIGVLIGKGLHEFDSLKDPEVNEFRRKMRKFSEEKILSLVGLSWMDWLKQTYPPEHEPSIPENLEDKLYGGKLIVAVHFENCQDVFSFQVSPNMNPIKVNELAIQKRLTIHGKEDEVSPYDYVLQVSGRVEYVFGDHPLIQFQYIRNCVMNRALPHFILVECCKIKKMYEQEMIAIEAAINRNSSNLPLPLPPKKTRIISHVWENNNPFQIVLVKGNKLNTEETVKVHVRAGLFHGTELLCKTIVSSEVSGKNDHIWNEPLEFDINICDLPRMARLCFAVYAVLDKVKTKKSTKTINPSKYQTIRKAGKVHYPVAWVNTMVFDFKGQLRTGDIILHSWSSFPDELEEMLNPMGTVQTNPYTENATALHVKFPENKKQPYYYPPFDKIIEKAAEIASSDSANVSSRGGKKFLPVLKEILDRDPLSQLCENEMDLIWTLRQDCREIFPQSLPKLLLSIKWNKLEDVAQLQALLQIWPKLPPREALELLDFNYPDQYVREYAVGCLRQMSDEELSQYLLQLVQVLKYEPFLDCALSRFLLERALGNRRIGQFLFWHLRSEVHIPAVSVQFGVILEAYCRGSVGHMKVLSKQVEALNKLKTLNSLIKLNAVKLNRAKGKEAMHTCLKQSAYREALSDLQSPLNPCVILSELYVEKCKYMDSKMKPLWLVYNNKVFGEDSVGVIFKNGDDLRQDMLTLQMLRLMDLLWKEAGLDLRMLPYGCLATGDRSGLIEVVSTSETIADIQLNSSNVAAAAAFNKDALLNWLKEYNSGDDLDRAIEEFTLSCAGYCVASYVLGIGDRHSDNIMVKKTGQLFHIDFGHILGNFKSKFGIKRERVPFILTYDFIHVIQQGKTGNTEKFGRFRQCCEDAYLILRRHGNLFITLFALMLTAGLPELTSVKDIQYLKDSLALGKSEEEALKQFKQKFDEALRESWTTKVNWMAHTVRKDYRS

As to `CNc1ncnc2c1c(-c1cc(O)cc(F)c1)nn2Cc1cc2ccccc2nc1N(C)CCN1CCOCC1` [Compound 76], the IC50 against p110δ/p85α, at p110γ, on p110α/p85α and on p110β/p85α was over 1000 nM each time.

Take `CCc1nc2ccccc2cc1Cn1nc(-c2cccc(O)c2)c2c(N)ncnc21` [Compound 96]: the IC50 is under 100 nM on p110δ/p85α, 100 to 1000 nM at p110γ, over 1000 nM against p110α/p85α and over 1000 nM at p110β/p85α.

With `Nc1ncnc2c1c(-c1ccnc(O)c1)nn2Cc1cc2ccccc2nc1-c1ccccc1F` [Compound 177], the IC50 at p110δ/p85α, against p110α/p85α and on p110β/p85α was over 1000 nM each time.

In turn, `CC(=O)Nc1cccc(-c2nn(Cc3cc4ccccc4nc3N3CCCC3)c3ncnc(N)c23)c1` [Compound 27] returned a half-inhibitory concentration (IC50) on p110δ/p85α of over 1000 nM.

For the molecule `Cc1ccccc1-c1ncccc1Cn1nc(-c2cccc(O)c2)c2c(N)ncnc21` [Compound 120], the IC50 against p110δ/p85α is over 1000 nM.

As to `Nc1ncnc2c1c(-c1ccc(O)nc1)nn2Cc1cc2ccccc2nc1-c1ccccc1F` [Compound 161], the IC50 on p110α/p85α and at p110β/p85α was over 1000 nM throughout.

On to `Cc1cccc2cc(Cn3nc(-c4cc(O)cc(F)c4)c4c(N)ncnc43)c(N3CCOCC3)nc12` [Compound 65], for which the IC50 on p110δ/p85α was under 100 nM; at p110γ it was under 100 nM; on p110α/p85α, 100 to 1000 nM; at p110β/p85α, 100 to 1000 nM.

For `CC(C)N1CCN(c2nc3ccccc3cc2Cn2nc(-c3ccc4nc(N)sc4c3)c3c(N)ncnc32)CC1` [Compound 164], the IC50 against p110α/p85α and at p110β/p85α was under 100 nM throughout.

For `CC(=O)Nc1nc2ccc(-c3nn(Cc4cc5ccccc5nc4-n4ccnc4C)c4ncnc(N)c34)cc2s1` [Compound 170], the IC50 on p110δ/p85α is under 100 nM; against p110γ, 100 to 1000 nM; against p110α/p85α, over 1000 nM; on p110β/p85α it was over 1000 nM.

Regarding `C[C@@H](O)C#Cc1nc2ccccc2nc1Cn1nc(C#C[C@@H](C)O)c2c(N)ncnc21` [Compound 103], the IC50 at p110δ/p85α and against p110γ was over 1000 nM in each case.

On to `Nc1ncnc2c1c(-c1cc(O)cc(F)c1)nn2Cc1cc2ccccc2nc1-c1ccccc1` [Compound 149], for which the IC50 on p110β/p85α was over 1000 nM.

On to `Nc1ncnc2c1c(-c1cc(F)ccc1O)nn2Cc1cc2ccccc2nc1N1CCCC1` [Compound 22], for which the IC50 at p110δ/p85α is over 1000 nM.

In turn, `COc1ccccc1-c1nc2ccccc2cc1Cn1nc(C#C[C@@H](C)O)c2c(N)ncnc21` [Compound 18] showed an IC50 at p110δ/p85α of over 1000 nM.

Turning to `CN1CCN(c2nc3ccccc3cc2Cn2nc(I)c3c(N)ncnc32)CC1` [Compound 44], the half-maximal inhibitory concentration (IC50) on p110δ/p85α was 100 to 1000 nM; at p110γ it was over 1000 nM.

The molecule `Nc1ncnc2c1c(-c1cccc(O)c1)nn2Cc1cccnc1N1CCCC1` [Compound 123] showed an IC50 at p110δ/p85α of over 1000 nM.

For `Nc1ncnc2c1c(-c1ccnc(O)c1)nn2Cc1cc2ccccc2nc1-c1ccccc1` [Compound 178], the IC50 against p110δ/p85α, against p110α/p85α and at p110β/p85α was over 1000 nM in each case.

In the case of `NC(=O)c1cccc(-c2nn(Cc3cc4ccccc4nc3N3CCCC3)c3ncnc(N)c23)c1` [Compound 28], on p110δ/p85α, the IC50 is over 1000 nM.

Consider `Nc1cc(-c2nn(Cc3cc4ccccc4nc3-c3ccccc3F)c3ncnc(N)c23)ccn1` [Compound 172], for which the IC50 at p110δ/p85α, on p110α/p85α and on p110β/p85α was over 1000 nM in each case.

In turn, `Nc1ncnc2c1c(I)nn2Cc1cc2c(nc1-c1ccccc1F)CCC2` [Compound 100] showed an IC50 against p110δ/p85α of over 1000 nM.

In the case of `Nc1ncnc2c1c(-c1cc(O)cc(F)c1)nn2Cc1cc2ccccc2nc1NC1CCCC1` [Compound 33], the IC50 against p110δ/p85α lay in the range of 100 to 1000 nM.

Turning to `Cc1ccccc1-c1ncccc1Cn1nc(-c2cc(O)cc(F)c2)c2c(N)ncnc21` [Compound 121], the IC50 against p110δ/p85α is over 1000 nM.

As for `CCC(Nc1ncnc2[nH]cnc12)c1cc2ccccc2nc1N1CCCC1` (stereo not drawn) [Compound 53], the IC50 against p110δ/p85α is 100 to 1000 nM; against p110γ it was over 1000 nM.

As for `N#Cc1nn(Cc2cc3ccccc3nc2-c2ccccc2F)c2ncnc(N)c12` [Compound 189], the IC50 at p110δ/p85α, against p110α/p85α and on p110β/p85α was over 1000 nM throughout.

In the case of `CC(c1cc2ccccc2nc1N1CCCC1)n1cnc2c(N)ncnc21` (stereo not drawn) [Compound 35], the IC50 against p110δ/p85α and against p110γ was over 1000 nM in each case.

Molecule `Nc1ncnc2c1c(-c1ccccc1O)nn2Cc1cc2ccccc2nc1N1CCCC1` [Compound 21] gave an IC50 against p110δ/p85α of over 1000 nM.

With `CN(C)c1ncccc1Cn1nc(-c2cc(O)cc(F)c2)c2c(N)ncnc21` [Compound 125], on p110δ/p85α, the IC50 is over 1000 nM.

Regarding `C[C@@H](O)C#Cc1nn(Cc2cc3ccccc3nc2N2CCCC2)c2ncnc(N)c12` [Compound 41], the IC50 at p110δ/p85α is under 100 nM.

`Nc1ncnc2c1c(-c1cc(O)cc(F)c1)nn2CCn1c(-c2ccccc2)nc2ccccc21` [Compound 126] registered an IC50 against p110δ/p85α of over 1000 nM.

`C[C@@H](O)C#Cc1nn(Cc2nc3ccccc3nc2N2CCCC2)c2ncnc(N)c12` [Compound 106]: the figures for the IC50 against p110δ/p85α and on p110γ were 100 to 1000 nM and over 1000 nM, respectively.

With `C[C@@H](O)C#Cc1nn(Cc2cc3ccccc3nc2N2CCN(C)CC2)c2ncnc(N)c12` [Compound 51], on p110δ/p85α, the IC50 is over 1000 nM.

For the molecule `Nc1ncnc2c1c(-c1cccnc1)nn2Cc1cc2ccccc2nc1N1CCCC1` [Compound 62], the IC50 on p110δ/p85α and against p110γ was 100 to 1000 nM each time.

Turning to `COc1ccccc1-c1nc2ccccc2cc1Cn1nc(-c2cccc(O)c2)c2c(N)ncnc21` [Compound 14], the IC50 against p110δ/p85α was in the range of 100 to 1000 nM.

`CC1CCCN1c1nc2ccccc2cc1Cn1ncc2c(N)ncnc21` (stereo not drawn) [Compound 188]: the IC50 on p110δ/p85α, against p110α/p85α and at p110β/p85α was over 1000 nM each time.

Regarding `CCC(c1cc2ccccc2nc1-c1ccccc1)n1cnc2c(N)ncnc21` (stereo not drawn) [Compound 37], the IC50 against p110δ/p85α and on p110γ was over 1000 nM each time.

Turning to `CC(=O)Nc1nc2ccc(-c3nn(Cc4cc5ccccc5nc4-c4ccccc4F)c4ncnc(N)c34)cc2[nH]1` [Compound 183], the IC50 against p110δ/p85α was 100 to 1000 nM; at p110γ, 100 to 1000 nM; on p110α/p85α it was over 1000 nM.

On to `Nc1ncc(-c2nn(Cc3cc4ccccc4nc3-c3ccccc3)c3nccc(N)c23)cn1` [Compound 160], for which the results for the IC50 against p110δ/p85α, on p110α/p85α and on p110β/p85α were 100 to 1000 nM, over 1000 nM and over 1000 nM, respectively.

Consider `Nc1cc(-c2nn(Cc3cc4ccccc4nc3-c3ccccc3)c3ncnc(N)c23)ccn1` [Compound 173], for which the IC50 on p110δ/p85α, on p110α/p85α and on p110β/p85α was over 1000 nM in each case.

Consider `Nc1ncnc2c1c(-c1cccc(O)c1)nn2Cc1cc2c(nc1-c1ccccc1F)CCC2` [Compound 102], for which the IC50 at p110δ/p85α was over 1000 nM.

For `CCC(c1cc2ccccc2nc1N1CCCC1)n1cnc2c(N)ncnc21` (stereo not drawn) [Compound 36], the IC50 on p110δ/p85α and on p110γ was over 1000 nM each time.

For `CN1CCN(c2nc3ccccc3cc2Cn2nc(-c3cc(O)cc(F)c3)c3c(N)ncnc32)CC1` [Compound 197], the IC50 at p110β/p85α is 100 to 1000 nM.

In the case of `Nc1ncnc2c1c(-c1cccc3[nH]ncc13)nn2Cc1cc2ccccc2nc1N1CCCC1` [Compound 58], the IC50 against p110δ/p85α and against p110γ was 100 to 1000 nM each time.

Consider `CC(=O)Nc1nc2ccc(-c3nn(Cc4cc5ccccc5nc4N4CCN(C(C)C)CC4)c4ncnc(N)c34)cc2s1` [Compound 163], for which the values for the IC50 against p110α/p85α and on p110β/p85α were 100 to 1000 nM and under 100 nM, respectively.

In turn, `CN(C)c1ncccc1Cn1nc(-c2cccc(O)c2)c2c(N)ncnc21` [Compound 122] showed an IC50 at p110δ/p85α of over 1000 nM.

`Nc1ncnc2c1c(-c1cc(O)cc(F)c1)nn2Cc1cccnc1N1CCCC1` [Compound 124] registered an IC50 against p110δ/p85α of over 1000 nM.

At p110α/p85α, `CC(=O)Nc1nc2ccc(-c3nn(Cc4cc5ccccc5nc4N4CCCC4)c4ncnc(N)c34)cc2s1` [Compound 24] gave an IC50 of 100 to 1000 nM.

Take `NC1=NC=NC2C1C(c1ccc(O)nc1)=NN2Cc1cc2ccccc2nc1-c1ccccc1` (stereo not drawn) [Compound 162]: the IC50 on p110α/p85α and on p110β/p85α was over 1000 nM each time.
